From a melting point compilation (Tetko et al.)

Row | SMILES | melting point
1 | COC(C)COC(C)CO (centres undefined) | -83 °C
2 | CC(=O)c1ccc2c(c1)Cc1ccccc1-2 | 130 °C
3 | CC(C)(C)OC(=O)N1CCC(O)CC1 | 63 °C
4 | O=[N+]([O-])c1cccc(-c2nnc3n2NC(c2ccccc2O)S3)c1 (centres undefined) | 210 °C
5 | CC(O)CO (centres undefined) | -60 °C
6 | COC(=O)c1c(C)[nH]c(C)c1C=O | 160 °C
7 | Cc1nc(-c2ccc(Cl)cc2)sc1C(=O)O | 251 °C
8 | COc1ccc(Br)c([N+](=O)[O-])c1 | 31 °C
9 | c1ccc(Cn2cccc2)cc1 | 15 °C
10 | CN(C)CC(=O)N1c2ccccc2Sc2ccccc21 | 144 °C
11 | CC(=O)OC1C2=C(C(=O)C(OC(C)=O)C3(CC3C)C2=O)C2(C)CCC(C)=C(C)C2C1O (centres undefined) | 176 to 178 °C
12 | Nc1c(F)cc(Cl)cc1Br | 41 to 43 °C
13 | Brc1ccc(OCc2ccccc2)cc1 | 62 °C
14 | Cc1c([N+](=O)[O-])c(C)c([N+](=O)[O-])c(C(C)(C)C)c1[N+](=O)[O-] | 110 °C
15 | COC(=O)N/C=C/c1ccccc1[N+](=O)[O-] | 146 to 148 °C
16 | C=CCN(CC=C)C(=O)C(Cl)Cl | 5.5 °C
17 | Cc1cc2ccccc2cc1CBr | 88 to 102 °C
18 | C=C(C)CCC=C(C)C | -70 °C
19 | Nc1ccc(Oc2ccc(Cl)cc2)cc1 | 102 °C
20 | O=C(O)c1cc(-c2cccs2)[nH]n1 | 229 to 232 °C
21 | O=C(c1ccccc1)c1ccccc1N=Nc1ccccc1C(=O)c1ccccc1 | 205 °C
22 | CCCCCCCCCCCCCCCCCCCCCCCCCCCCCCCCCCC | 75 °C
23 | O=Cc1ccc(CBr)cc1 | 99 to 100 °C
24 | Oc1nccnc1O | 300 °C
25 | COC(=O)c1scc(C)c1Cl | 76 to 78 °C
26 | CCC1Nc2cc(Cl)c(S(N)(=O)=O)cc2S(=O)(=O)N1 (centres undefined) | 270 °C
27 | C=C1C(=CC=C2CCCC3(C)C2CCC3C(C)CCCC(C)C)CC(O)CC1O (centres undefined) | 136 °C

Row | SMILES | melting point
28 | COC(=O)CCC(C)C1CCC2C3CCC4CC(=O)CCC4(C)C3CC(=O)C12C (centres undefined) | 129 to 130 °C
29 | Cc1csc2ncnc(Cl)c12 | 137 to 138 °C
30 | O=C(O)c1cc2cc(Br)ccc2oc1=O | 195 °C
31 | Cc1c(C)c(C)c2c(c1C)CC2=O | 160 to 161 °C
32 | COC(=O)c1c(Cl)cccc1Cl | 28 °C
33 | COC(=O)c1nc(Cl)c(N)nc1N | 212 °C
34 | CS(=O)(=O)Nc1ccccc1 | 93 to 97 °C
35 | CC(=O)NC1C(Oc2ccc3c(C)cc(=O)oc3c2)OC(CO)C(O)C1O (centres undefined) | 208 to 210 °C
36 | COc1c(Br)cc(Br)cc1Br | 88 °C
37 | COc1ccc(Br)cc1S(=O)(=O)Cl | 114 °C
38 | O=C(O)CCCCCCCO | 51 to 57 °C
39 | NC(=S)Nc1ccc(F)cc1 | 162 to 167 °C
40 | CC(C)(C)OC(=O)Nc1cccs1 | 151 to 152 °C
41 | Cc1ccc(C)c(OCCCC(C)(C)C(=O)O)c1 | 61 °C
42 | Brc1cccc(Br)c1Oc1ccccc1 | < 20 °C
43 | BrCc1cccc2nsnc12 | 89 to 92 °C
44 | CCOC(=O)C1=NN(c2ccc(Cl)cc2Cl)C(C)(C(=O)OCC)C1 (centres undefined) | 51 °C
45 | O=C(O)c1cc(Br)cc2c1OCC2 | 230 °C
46 | CCCCCCCCCI | -20 °C
47 | COc1cccc(C(=O)NN(C(=O)c2cc(C)cc(C)c2)C(C)(C)C)c1C | 204 °C
48 | NNC(=O)CCCO | 93 °C
49 | COc1c(OC)c(OC(C)=O)c2cc(Br)ccc2c1OC(C)=O | 102 °C
50 | COC(=O)c1cc(C)n(C)n1 | 93 °C
51 | CC(=O)c1ccc(Cl)c(Cl)c1Cl | 62 °C
52 | O=C1c2ccc(O)cc2OC(c2ccc(O)c(O)c2)C1O (centres undefined) | 227 °C
53 | Nc1ncc2nc[nH]c2n1 | 280 to 284 °C
54 | O=C(O)Cc1c(Cl)cccc1C(F)(F)F | 151 °C
